Assay results taken from patent US20140341837A1, “Ferrate and Povidone Iodine (PI) Composition” (Biolife, L.L.C., priority 2010, published 2014).

How the values were obtained:
[1] = standard hemostasis strength device; details: povidone iodine at 10%
Procedure: A mixture of various iron sources, chelation compounds, and active antimicrobials was tested using the recovered biofilm from WU according to the matrix in Table III.
Each mixture was tested in a standard hemostasis strength device described in detail in FDA 510k filing, K080210, incorporated herein in its entirety, and in the standardized 96 unit biofilm eradication test device also described in the 510k filing. The results were indexed* to #12, the ferrate/resin/10% PI powder.

[2] = stability of PI in the dry powder; format: physicochemical; details: very dry environment of the powder
Text: The PI is stable in this very dry environment.

[3] = cited from earlier work
[4] = on dilution; cited from earlier work

PVP-Iodine [PI]
effect of PI addition on hemostatic efficiency [1]: does not affect the hemostatic efficiency | stability of PI [2]: stable | efficacy at concentrations of 5-10% PI ([3]; 5-10% PI): ineffective | I2 concentration of non-effective kill ([3]; pamphlet FIG. 2): < 0.001% | solution strength at maximum content of uncomplexed iodine [4]: 0.1%
